Where two headings read alike, the source gives them in different places.
Biological target: PRC2 complex (EZH2 Y641F/EED/SUZ12/RbAp48/AEBP2) (Homo sapiens (Human), UniProt Q15910, Y641F)
Assay: Activity of a compound to PRC2 complex (EZH2 Y641F), HTRF
[1] = read-out: IC50 (EZH2_Y641F), EZH2 Y641F PRC2 complex, HTRF, class symbols

PRC2 complex (EZH2 Y641F/EED/SUZ12/RbAp48/AEBP2), sequence (Q15910 whole entry Y641F): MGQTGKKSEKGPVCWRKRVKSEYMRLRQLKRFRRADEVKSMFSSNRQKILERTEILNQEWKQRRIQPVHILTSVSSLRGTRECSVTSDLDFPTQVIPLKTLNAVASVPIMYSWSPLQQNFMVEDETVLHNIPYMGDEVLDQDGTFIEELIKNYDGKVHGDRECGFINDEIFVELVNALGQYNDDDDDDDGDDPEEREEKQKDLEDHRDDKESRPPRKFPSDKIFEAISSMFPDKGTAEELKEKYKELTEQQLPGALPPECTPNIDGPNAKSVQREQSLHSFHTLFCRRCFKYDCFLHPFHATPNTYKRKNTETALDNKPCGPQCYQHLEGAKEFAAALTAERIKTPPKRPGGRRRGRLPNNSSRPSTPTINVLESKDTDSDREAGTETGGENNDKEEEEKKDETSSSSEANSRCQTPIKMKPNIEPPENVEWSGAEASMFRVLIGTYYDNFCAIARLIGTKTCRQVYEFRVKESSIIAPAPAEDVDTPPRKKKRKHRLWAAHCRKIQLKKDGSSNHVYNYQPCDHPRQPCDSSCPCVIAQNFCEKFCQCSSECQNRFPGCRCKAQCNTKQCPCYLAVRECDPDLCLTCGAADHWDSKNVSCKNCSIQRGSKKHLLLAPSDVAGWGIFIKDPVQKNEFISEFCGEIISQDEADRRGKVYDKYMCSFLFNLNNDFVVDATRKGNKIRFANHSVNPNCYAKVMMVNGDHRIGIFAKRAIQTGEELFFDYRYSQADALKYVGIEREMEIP
PRC2 complex (EZH2 Y641F/EED/SUZ12/RbAp48/AEBP2), sequence (O75530 whole entry partner): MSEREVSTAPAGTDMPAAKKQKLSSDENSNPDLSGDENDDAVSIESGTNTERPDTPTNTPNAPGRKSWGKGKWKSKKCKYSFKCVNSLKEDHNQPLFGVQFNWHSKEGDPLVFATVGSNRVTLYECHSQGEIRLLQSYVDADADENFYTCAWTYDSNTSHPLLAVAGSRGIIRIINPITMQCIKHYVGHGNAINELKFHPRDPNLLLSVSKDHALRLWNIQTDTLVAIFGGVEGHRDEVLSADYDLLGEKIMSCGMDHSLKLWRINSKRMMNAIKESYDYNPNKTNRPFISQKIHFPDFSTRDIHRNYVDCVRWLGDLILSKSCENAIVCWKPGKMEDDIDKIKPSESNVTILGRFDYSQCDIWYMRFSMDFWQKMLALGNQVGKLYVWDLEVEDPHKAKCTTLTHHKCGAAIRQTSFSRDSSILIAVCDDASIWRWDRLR
PRC2 complex (EZH2 Y641F/EED/SUZ12/RbAp48/AEBP2), sequence (Q15022 whole entry partner): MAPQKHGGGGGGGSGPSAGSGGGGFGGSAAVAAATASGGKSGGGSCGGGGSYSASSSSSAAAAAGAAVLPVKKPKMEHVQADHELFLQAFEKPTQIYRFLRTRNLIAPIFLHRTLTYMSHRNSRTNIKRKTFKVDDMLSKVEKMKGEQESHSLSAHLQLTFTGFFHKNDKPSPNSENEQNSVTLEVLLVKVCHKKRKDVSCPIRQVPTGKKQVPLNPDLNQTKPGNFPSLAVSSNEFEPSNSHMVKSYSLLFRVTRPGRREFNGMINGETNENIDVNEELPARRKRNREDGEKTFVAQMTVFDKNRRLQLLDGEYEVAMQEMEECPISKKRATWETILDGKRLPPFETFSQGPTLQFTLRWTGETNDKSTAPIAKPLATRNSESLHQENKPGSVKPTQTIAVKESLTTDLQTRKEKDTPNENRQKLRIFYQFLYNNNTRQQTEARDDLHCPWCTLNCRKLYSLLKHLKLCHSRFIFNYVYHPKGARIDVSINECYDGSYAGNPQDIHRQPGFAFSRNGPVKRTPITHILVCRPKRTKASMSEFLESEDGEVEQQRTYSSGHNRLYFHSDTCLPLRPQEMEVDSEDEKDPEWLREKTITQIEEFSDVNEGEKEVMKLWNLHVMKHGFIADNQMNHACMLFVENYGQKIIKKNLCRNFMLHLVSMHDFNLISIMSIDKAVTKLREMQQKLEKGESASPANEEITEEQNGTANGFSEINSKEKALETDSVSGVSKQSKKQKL
PRC2 complex (EZH2 Y641F/EED/SUZ12/RbAp48/AEBP2), sequence (Q09028 whole entry partner): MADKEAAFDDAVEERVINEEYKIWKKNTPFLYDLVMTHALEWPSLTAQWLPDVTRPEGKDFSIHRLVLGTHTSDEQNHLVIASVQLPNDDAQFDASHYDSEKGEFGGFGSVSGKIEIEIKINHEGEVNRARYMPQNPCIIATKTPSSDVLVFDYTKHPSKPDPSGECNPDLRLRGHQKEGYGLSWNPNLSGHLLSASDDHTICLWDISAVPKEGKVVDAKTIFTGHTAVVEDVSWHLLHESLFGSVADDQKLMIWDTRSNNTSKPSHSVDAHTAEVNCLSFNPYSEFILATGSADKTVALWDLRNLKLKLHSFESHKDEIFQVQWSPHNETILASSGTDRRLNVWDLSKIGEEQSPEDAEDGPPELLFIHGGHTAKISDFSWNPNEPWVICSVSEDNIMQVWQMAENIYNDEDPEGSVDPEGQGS
PRC2 complex (EZH2 Y641F/EED/SUZ12/RbAp48/AEBP2), sequence (Q6ZN18 whole entry partner): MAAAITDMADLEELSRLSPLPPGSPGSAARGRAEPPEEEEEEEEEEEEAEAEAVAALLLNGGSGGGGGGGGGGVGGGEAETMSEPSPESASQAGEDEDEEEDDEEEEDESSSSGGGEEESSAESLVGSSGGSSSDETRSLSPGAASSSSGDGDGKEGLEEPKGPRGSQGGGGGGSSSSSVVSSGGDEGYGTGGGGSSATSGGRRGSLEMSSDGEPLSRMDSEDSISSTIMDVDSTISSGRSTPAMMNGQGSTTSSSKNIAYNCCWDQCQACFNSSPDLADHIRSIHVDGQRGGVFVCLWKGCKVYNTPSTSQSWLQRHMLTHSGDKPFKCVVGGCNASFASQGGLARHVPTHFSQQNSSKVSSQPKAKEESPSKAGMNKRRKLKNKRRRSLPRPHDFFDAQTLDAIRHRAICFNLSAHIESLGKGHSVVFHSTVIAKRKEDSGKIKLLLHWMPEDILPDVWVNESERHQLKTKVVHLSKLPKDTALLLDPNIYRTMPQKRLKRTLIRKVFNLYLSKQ

IC50 [1] [nM] | Compound | IC50 [nM]
< 100 | Cc1cc(C)c(CNC(=O)c2cc3c(-c4cnn(C5CCOCC5)c4)ccn3c(C(C)N3CCN(CC(F)(F)F)CC3)c2C)c(=O)[nH]1 (centres unmarked) [Compound 190, N-((4,6-dimethyl-2-oxo-1,2-dihydropyridin-3-yl)methyl)-6-methyl-1-(1-(tetrahydro-2H-pyran-4-yl)-1H-pyrazol-4-yl)-5-(1-(4-(2,2,2-trifluoroethyl)piperazin-1-yl)ethyl)indolizine-7-carb oxamide] | –
100 to 1000 | Cc1cc(C)c(CNC(=O)c2cc3cccn3c(C(O)c3ccc(Br)cc3)c2C)c(=O)[nH]1 (centres unmarked) [Example 23, 5-((4-bromophenyl)(hydroxy)methyl)-N-((4,6-dimethyl-2-oxo-1,2-dihydropyridin-3-yl)methyl)-6-methylindolizine-7-carboxamide] | –
< 100 | COc1cc(C)[nH]c(=O)c1CNC(=O)c1cc2c(-c3ccccc3)ccn2c(C(C)N2CCC(N(C)C)CC2)c1C (centres unmarked) [Example 129, N-((4,6-dimethyl-2-oxo-1,2-dihydropyridin-3-yl)methyl)-5-(1-(4-(dimethylamine)piperidine-1-yl)ethyl)-6-methyl-1-(1-methyl-1H-pyrazol-5-yl)indolizine-7-carboxamide] | –
< 100 | CNc1ccc(-c2ccn3c([C@H](C)N4CCN(CC(F)(F)F)CC4)c(C)c(C(=O)NCc4c(OC)cc(C)[nH]c4=O)cc23)cn1 (single isomer, unassigned) [Compound 165, (S)—N-((4-methoxy-6-methyl-2-oxo-1,2-dihydropyridin-3-yl)methyl)-6-methyl-1-(6-(methylamino)pyridin-3-yl)-5-(1-(4-(2,2,2-trifluoroethyl)piperazin-1-yl)ethyl)indolizine-7-formamide or (R)—N-((4-methoxy-6-methyl-2-oxo-1,2-dihydropyridin-3-yl)methyl)-6-methyl-1-(6-(methylamino)pyridin-3-yl)-5-(1-(4-(2,2,2-trifluoroethyl)piperazin-1-yl)ethyl)indolizine-7-formamide] | –
< 100 | COc1cc(C)[nH]c(=O)c1CNC(=O)c1cc2c(-c3cccnc3N(C)C)ccn2c(C(C)N2CCN(CC(F)(F)F)CC2)c1C (centres unmarked) [Compound 179, 1-(2-(dimethylamino)pyridin-3-yl)-N-((4-methoxy-6-methyl-2-oxo-1,2-dihydropyridin-3-yl)methyl)-6-methyl-5-(1-(4-(2,2,2-trifluoroethyl)piperazin-1-yl)ethyl)indolizine-7-carboxamide] | –
< 100 | COc1cc(C)[nH]c(=O)c1CNC(=O)c1cc2c(-c3ccc(C)nc3)ccn2c(C(C)N2CCN(CC(F)(F)F)CC2)c1C (centres unmarked) [Compound 192, N-((4-methoxy-6-methyl-2-oxo-1,2-dihydropyridin-3-yl)methyl)-6-methyl-1-(6-methylpyridin-3-yl)-5-(1-(4-(2,2,2-trifluoroethyl)piperazin-1-yl)ethyl)indolizine-7-carboxamide] | –
< 100 | COc1cc(C)[nH]c(=O)c1CNC(=O)c1cc2c(-c3ncnn3C)ccn2c(C(C)N2CCN(CC(F)(F)F)CC2)c1C (centres unmarked) [Compound 183, N-((4-methoxy-6-methyl-2-oxo-1,2-dihydropyridin-3-yl)methyl)-6-methyl-1-(1-methyl-1H-1,2,4-triazol-5-yl)-5-(1-(4-(2,2,2-trifluoroethyl)piperazin-1-yl)ethyl)indolizine-7-carboxamide] | –
< 100 | Cc1cc(C)c(CNC(=O)c2cc3cc(-c4cncn4C)cn3c(C(C)N3CCC(N(C)C)CC3)c2C)c(=O)[nH]1 (centres unmarked) [Example 134, N-((4,6-dimethyl-2-oxo-1,2-dihydropyridin-3-yl)methyl)-5-(1-(4-(dimethylamino)piperidin-1-yl)ethyl)-6-methyl-2-(1-methyl-1H-imidazol-5-yl)indolizine-7-carboxamide] | –
< 100 | COc1cc(C)[nH]c(=O)c1CNC(=O)c1cc2c(-c3ccccc3)ccn2c(C(C)N2CCOCC2)c1C (centres unmarked) [Example 131, N-((4-methoxy-6-methyl-2-oxo-1,2-dihydropyridin-3-yl)methyl)-6-methyl-5-(1-morpholinylethyl)-1-phenylindolizine-7-carboxamide] | –
< 100 | CCN(c1c(C)c(C(=O)NCc2c(C)cc(C)[nH]c2=O)cc2cc(-c3ccnn3C)cn12)C1CCOCC1 [Example 65, N-((4,6-dimethyl-2-oxo-1,2-dihydropyridin-3-yl)methyl)-5-(ethyl(tetrahydro-2H-pyran-4-yl)amino)-6-methyl-2-(1-methyl-1H-pyrazol-5-yl)indolizin-7-carboxamide] | –
< 100 | Cc1cc(C(F)(F)F)c(CNC(=O)c2cc3c(-c4ccc(N)nc4)ccn3c(C(C)N3CCN(CC(F)(F)F)CC3)c2C)c(=O)[nH]1 (centres unmarked) [Compound 186, 1-(6-aminopyridin-3-yl)-6-methyl-N-((6-methyl-2-oxo-4-(trifluoromethyl)-1,2-dihydropyridine-3-yl)methyl)-5-(1-(4-(2,2,2-trifluoroethyl)piperazin-1-yl)ethyl)indolizine-7-carboxamide] | –

Further lines, the compound ahead of its results:

Compound | IC50 [1] [nM] | IC50 [nM]
COc1cc(-c2cc3cc(C(=O)NCc4c(C)cc(C)[nH]c4=O)c(C)c(C(C)N4CCOCC4)n3c2)cc(OC)c1OC (centres unmarked) [Example 37, N-((4,6-dimethyl-2-oxo-1,2-dihydropyridin-3-yl)methyl)-6-methyl-5-(1-morpholinylethyl)-2-(3,4,5-trimethoxyphenyl)indolizine-7-carboxamide] | – | < 100
Cc1cc(C)c(CNC(=O)c2cc3cc(-c4ccn[nH]4)cn3c(C(C)N3CCOCC3)c2C)c(=O)[nH]1 (centres unmarked) [Example 112, N-((4,6-dimethyl-2-oxo-1,2-dihydropyridin-3-yl)methyl)-6-methyl-5-(1-morpholinoethyl)-2-(pyrazol-5-yl)indolizine-7-carboxamide] | < 100 | –
Cc1cc(C)c(CNC(=O)c2cc3cc(-c4cncn4C)cn3c(C(C)N3CCOCC3)c2C)c(=O)[nH]1 (centres unmarked) [Example 86, N-((4,6-dimethyl-2-oxo-1,2-dihydropyridin-3-yl)methyl)-6-methyl-2-(1-methyl-1H-imidazole-5-yl)-5-(1-morpholinoethyl)indolizine-7-carboxamide] | < 100 | –
Cc1cc(C)c(CNC(=O)c2cc3cc(-c4cccnc4)cn3c(C(C)N3CCC(N(C)C)CC3)c2C)c(=O)[nH]1 (centres unmarked) [Example 48, N-((4,6-dimethyl-2-oxo-1,2-dihydropyridin-3-yl)methyl)-6-methyl-5-(1-morphinolinylethyl)-2-(tetrahydro-2H-pyran-4-yl)indolizine-7-carboxamide] | < 100 | –
Cc1cc(C)c(CNC(=O)c2cc3cc(Br)cn3c(C(C)N3CCNCC3)c2C)c(=O)[nH]1 (centres unmarked) [Example 100] | – | 100 to 1000
CCN(c1c(C)c(C(=O)NCc2c(C)cc(C)[nH]c2=O)cc2cc(-c3ccccc3)cn12)C1CCOCC1 [Example 63] | 100 to 1000 | –
Cc1cc(C)c(CNC(=O)c2cc3cc(Br)cn3c(C(C)Oc3ccc(N(C)C)cc3)c2C)c(=O)[nH]1 (centres unmarked) [Example 30] | < 100 | –
Cc1cc(C)c(CNC(=O)c2cc3cc(C(=O)N4CCOCC4)cn3c(C(C)N3CCOCC3)c2C)c(=O)[nH]1 (centres unmarked) [Example 126, N-((4,6-dimethyl-2-oxo-1,2-dihydropyridin-3-yl)methyl)-6-methyl-2-(morpholin-4-carbonyl)-5-(1-morpholinoethyl)indolizine-7-carboxamide] | < 100 | –
CCc1cc(-c2ccn3c(C(C)N4CCN(CC(F)(F)F)CC4)c(C)c(C(=O)NCc4c(OC)cc(C)[nH]c4=O)cc23)ccn1 (centres unmarked) [Compound 205, 1-(2-ethylpyridin-4-yl)-N-((4-methoxy-6-methyl-2-oxo-1,2-dihydropyridin-3-yl)methyl)-6-methyl-5-(1-(4-(2,2,2-trifluoroethyl)piperazin-1-yl)ethyl)indolizine-7-carboxamide] | – | < 100
Cc1cc(C)c(CNC(=O)c2cc3cc(-c4cccnc4)cn3c(C(C)N3CCC(N(C)C)CC3)c2C)c(=O)[nH]1 (centres unmarked) [Example 49, N-((4,6-dimethyl-2-oxo-1,2-dihydropyridin-3-yl)methyl)-5-(1-(4-(dimethylamino)piperidin-1-yl)ethyl)-6-methyl-2-(pyridin-3-yl)indolizine-7-carboxamide] | – | < 100
COc1cc(C)[nH]c(=O)c1CNC(=O)c1cc2c(-c3ccnc(N(C)C)c3)ccn2c(C(C)N2CCN(CC(F)(F)F)CC2)c1C (centres unmarked) [Compound 170, 1-(2-(dimethylamino)pyridin-4-yl)-N-((4-methoxy-6-methyl-2-oxo-1,2-dihydropyridin-3-yl)methyl)-6-methyl-5-(1-(4-(2,2,2-trifluoroethyl)piperazin-1-yl)ethyl)indolizine-7-carboxamide] | – | < 100
(S)-1-Chloro-N-((4,6-dimethyl-2-oxo-1,2-dihydropyridin-3-yl)methyl)-6-methyl-5-(1-morphinolinylethyl)pyridazin-7-carboxamide or (R)-1-chloro-N-((4,6-dimethyl-2-oxo-1,2-dihydro)pyridin-3-yl)methyl)-6-methyl-5-(1-morphinolinylethyl)pyridazin-7-carboxamide [Compound 29] | 100 to 1000 | –
Cc1cc(C)c(CNC(=O)c2cc3cc(-c4ccncc4)cn3c(C(C)N3CCC(N(C)C)CC3)c2C)c(=O)[nH]1 (centres unmarked) [Example 93, N-((4,6-dimethyl-2-oxo-1,2-dihydropyridin-3-yl)methyl)-5-(1-(4-(dimethylamino)piperidine-1-yl)ethyl)-6-methyl-2-(pyridin-4-yl)indolizine-7-carboxamide] | – | < 100
COc1cc(C)[nH]c(=O)c1CNC(=O)c1cc2cc(-c3cncn3C)cn2c(C(C)N2CCN(CC(F)(F)F)CC2)c1C (centres unmarked) [Example 137, N-((4-Methoxy-6-methyl-2-oxo-1,2-dihydropyridin-3-yl)methyl)-6-methyl-2-(1-methyl-1H-imidazol-5-yl)-5-(1-(4-(2,2,2-trifluoroethyl)piperazin-1-yl)ethyl)indolizine-7-carboxamide] | – | < 100
Cc1cc(C)c(CNC(=O)c2cc3cc(-c4ccc(N5CCOCC5)cc4)cn3c(C(C)N3CCOCC3)c2C)c(=O)[nH]1 (centres unmarked) [Example 32, N-((4,6-dimethyl-2-oxo-1,2-dihydropyridin-3-yl)methyl)-6-methyl-5-(1-morphinolinylethyl)-2-(4-morphinolinylphenyl)indolizine-7-carboxamide] | < 100 | –
